Data from PMC11348465, “Pharmacochemical Study of Multitarget Amino Acids’ Hybrids: Design, Synthesis, In vitro, and In silico Studies” (Medicinal Chemistry (Shariqah (United Arab Emirates), 2024).
Read-outs that look alike come from different tables or passages of the source.

Key:
[1] = biological target: T1, soybean lipoxygenase (LOX-1) (Glycine max, UniProt P08170); assay: Soybean lipoxygenase inhibition study; assay type: biochemical; settings: for LOX inhibition (%): % inhibition at 100 µM; for inhibition at 100 µM: read-out: LOX inhibition (%)
T1 construct: purchased Sigma Chemical, Co. (St Louis, MO, USA)
T1 sequence (P08170 1-839): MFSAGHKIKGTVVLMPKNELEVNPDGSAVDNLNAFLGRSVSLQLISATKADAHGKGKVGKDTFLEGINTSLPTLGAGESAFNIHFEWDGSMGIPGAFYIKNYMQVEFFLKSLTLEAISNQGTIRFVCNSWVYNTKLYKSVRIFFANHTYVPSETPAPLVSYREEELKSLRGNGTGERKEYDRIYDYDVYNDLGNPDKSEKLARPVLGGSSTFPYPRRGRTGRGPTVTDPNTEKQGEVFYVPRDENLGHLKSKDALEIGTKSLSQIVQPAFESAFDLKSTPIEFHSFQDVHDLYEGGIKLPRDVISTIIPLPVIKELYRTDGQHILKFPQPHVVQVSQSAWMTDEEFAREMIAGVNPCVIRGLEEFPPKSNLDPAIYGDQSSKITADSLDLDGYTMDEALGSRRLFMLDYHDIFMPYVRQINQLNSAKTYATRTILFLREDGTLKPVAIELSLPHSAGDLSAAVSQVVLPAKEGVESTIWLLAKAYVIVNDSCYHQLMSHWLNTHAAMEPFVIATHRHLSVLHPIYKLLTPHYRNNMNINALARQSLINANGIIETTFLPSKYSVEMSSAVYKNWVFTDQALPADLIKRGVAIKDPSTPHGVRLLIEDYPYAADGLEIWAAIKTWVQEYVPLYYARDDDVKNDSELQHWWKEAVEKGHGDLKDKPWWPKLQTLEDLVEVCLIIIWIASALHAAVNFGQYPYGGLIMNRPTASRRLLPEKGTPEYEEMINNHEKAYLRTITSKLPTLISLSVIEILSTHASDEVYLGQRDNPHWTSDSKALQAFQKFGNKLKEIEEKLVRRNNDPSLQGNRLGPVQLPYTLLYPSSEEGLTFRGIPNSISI
Description: Our group evaluated an in vitro study as reported previously. The tested hybrids were incubated at room temperature with sodium linoleate (100 µM) and 200 µL of enzyme solution (1/9 X 10^-4 w/v in saline). […] Different concentrations were used for the determination of IC50. A blank determination was used as a negative control.
Due to the limited work on sufficiently purified human ALOX-5 isoenzyme, most of the published research was performed on the soybean homolog. […] This study used the soybean isoenzyme LOX-1, which exerts maximal activity at pH 9.0 [72].

[2] = cited from earlier work
[3] = biological target: T2, ovine COX-2 (Ovis aries, UniProt P79208); assay: Cyclooxygenase-2 inhibition study; assay type: biochemical; settings: for IC50: read-out: COX-2 inhibition (IC50); for COX-2 inhibition (%): % inhibition at 100 µM
T2 construct: purchased Cayman (USA)
T2 sequence (P79208 17-603): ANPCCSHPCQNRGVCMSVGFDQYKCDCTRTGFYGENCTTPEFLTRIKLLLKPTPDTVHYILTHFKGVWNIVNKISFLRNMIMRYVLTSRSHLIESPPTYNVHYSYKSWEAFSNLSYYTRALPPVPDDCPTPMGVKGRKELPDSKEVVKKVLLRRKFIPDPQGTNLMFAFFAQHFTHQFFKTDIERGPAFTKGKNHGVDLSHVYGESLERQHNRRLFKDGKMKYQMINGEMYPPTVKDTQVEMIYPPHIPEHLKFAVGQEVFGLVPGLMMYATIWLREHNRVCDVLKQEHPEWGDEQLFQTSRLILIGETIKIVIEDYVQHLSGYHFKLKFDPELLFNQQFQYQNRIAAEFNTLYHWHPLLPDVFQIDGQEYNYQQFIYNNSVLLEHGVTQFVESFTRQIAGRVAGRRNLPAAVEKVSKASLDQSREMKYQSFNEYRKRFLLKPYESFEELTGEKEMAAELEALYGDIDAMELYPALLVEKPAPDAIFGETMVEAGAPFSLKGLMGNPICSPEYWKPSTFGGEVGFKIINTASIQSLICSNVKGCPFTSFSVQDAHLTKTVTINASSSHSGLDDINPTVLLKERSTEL
Description: The in vitro study of cyclooxygenase (COX) activity was determined by using arachidonic acid (AA) as the substrate and N,N,N’,N’-tetramethylphenylenediamine (TMPD) as the co-substrate. […] The absorption due to the spontaneous oxidation of TMPD was subtracted from the initial rate of oxidation observed in the presence of AA. […] A blank determination was used first to serve as a negative control. Indomethacin was used as a reference COX-2 inhibitor (positive control).
The role of COX-2 in neurodegenerative diseases has been reported, and COX-2 inhibition is considered of high importance as a therapeutic tool. The designed derivatives were tested for their COX-2 inhibition activity on the ovine COX-2 enzyme. […] Indomethacin was used as a reference compound.

[4] = Inhibition of linoleic acid peroxidation (AAPH-induced)
Description: Our group evaluated the in vitro study as reported previously. Ten 16 mM sodium linoleate solution microliters were added to the UV cuvette containing 93 µL of a 0.05 M phosphate buffer, pH 7.4, and 10 µL of the tested compounds (final concentration 100 µM). The oxidation reaction started at 37 °C under air by adding 50 µL of the free radical initiator AAPH (40 mM). Oxidation was carried out and monitored at 234 nm. DMSO under the same conditions was used as a negative control. Trolox was used as the appropriate standard (positive control). The results are given in Table S1 in the supplementary material.
We used the water-soluble 2, 2’-azobis(2-amidinopropane) hydrochloride (AAPH) to generate in vitro peroxyl radicals through spontaneous thermal decomposition, which resembles cellular lipid peroxidation due to the activity of the undertaken radicals. The anti-lipid peroxidation activities were compared to a well-known antioxidant, i.e., Trolox (Table S1 in the supplementary material). […] In general, the anti-lipid peroxidation ranged from 8-99%. Except for acids 11, 12, 17, 19, 21, 22, 24, 25, and 28, which present high antioxidant activities (on the high % level), the other cinnamic acids present low or medium activity.

[5] = read-out: LOX inhibition (IC50)

Structure (SMILES): O=C(O)/C=C/c1ccc(OCc2ccc(Br)cc2)cc1 [Compound 11]
- IC50 [1]: 100 µM
- AAPH inhibition (%, at 100 µM) [2]: 84%
- inhibition at 100 µM [3]: 17%

Structure (SMILES): O=C(O)/C=C/c1cccc(Oc2ccccc2)c1 [Compound 12]
- AAPH inhibition (%, at 100 µM) [2]: 84%
- inhibition at 100 µM [3]: 39%

Structure (SMILES): CCOC(=O)CNC(=O)/C=C/c1cccc(Oc2ccccc2)c1 [Compound 12a]
- AAPH inhibition (%, at 100 µM) [4]: 48%
- LOX inhibition (%) [1]: 36%
- IC50 [3]: 55 µM

Structure (SMILES): O=C(O)/C=C/c1ccc(C(F)(F)F)cc1 [Compound 13]
- AAPH inhibition (%, at 100 µM) [4]: 37%
- inhibition at 100 µM [1]: 42%
- inhibition at 100 µM [3]: 32%

Structure (SMILES): COC(=O)CC[C@H](NC(=O)/C=C/c1cccc2ccccc12)C(=O)OC [Compound 17c]
- AAPH inhibition (%, at 100 µM) [4]: 57%
- IC50 [1, 5]: 68 µM
- IC50 [3]: 62 µM

Structure (SMILES): COc1ccc(/C=C/C(=O)O)cc1OC [Compound 18]
- AAPH inhibition (%, at 100 µM) [2]: 86%
- inhibition at 100 µM [3]: 19%

Structure (SMILES): CCOC(=O)CNC(=O)/C=C/c1ccc(OC)c(OC)c1 [Compound 18a]
- AAPH inhibition (%, at 100 µM) [4]: 99%
- IC50 [1, 5]: 62.5 µM
- COX-2 inhibition (%) [3]: 14%

Structure (SMILES): COc1ccc(OC)c(/C=C/C(=O)O)c1 [Compound 19]
- AAPH inhibition (%, at 100 µM) [4]: 88%
- IC50 [1, 5]: 60 µM
- inhibition at 100 µM [3]: 28%

Structure (SMILES): O=C(O)/C=C/c1ccc2c(c1)OCO2 [Compound 20]
- AAPH inhibition (%, at 100 µM) [4]: 31%
- inhibition at 100 µM [1]: 27%

Structure (SMILES): CCOC(=O)CNC(=O)/C=C/c1ccc2c(c1)OCO2 [Compound 20a]
- AAPH inhibition (%, at 100 µM) [4]: 70%
- LOX inhibition (%) [1]: 6%
- IC50 [3]: 75 µM

Structure (SMILES): COC(=O)CCCNC(=O)/C=C/c1ccc2c(c1)OCO2 [Compound 20b]
- AAPH inhibition (%, at 100 µM) [4]: 9%
- IC50 [1, 5]: 67.5 µM

Structure (SMILES): COC(=O)CC[C@H](NC(=O)/C=C/c1ccc2c(c1)OCO2)C(=O)OC [Compound 20c]
- AAPH inhibition (%, at 100 µM) [4]: 20%
- LOX inhibition (%) [1]: 19%

Structure (SMILES): O=C(O)/C=C/c1cccs1 [Compound 21]
- AAPH inhibition (%, at 100 µM) [2]: 60%

Structure (SMILES): CCOC(=O)CNC(=O)/C=C/c1cccs1 [Compound 21a]
- AAPH inhibition (%, at 100 µM) [4]: 15%
- LOX inhibition (%) [1]: 20%
- IC50 [3]: 55 µM

Structure (SMILES): COC(=O)CCCNC(=O)/C=C/c1cccs1 [Compound 21b]
- AAPH inhibition (%, at 100 µM) [4]: 73%
- LOX inhibition (%) [1]: 0%
- COX-2 inhibition (%) [3]: 38%

Structure (SMILES): COC(=O)CC[C@H](NC(=O)/C=C/c1cccs1)C(=O)OC [Compound 21c]
- AAPH inhibition (%, at 100 µM) [4]: 41%
- IC50 [1, 5]: 100 µM

Structure (SMILES): O=C(O)/C=C/c1ccccc1 [Compound 22, cinnamic acid]
- AAPH inhibition (%, at 100 µM) [2]: 78%
- inhibition at 100 µM [3]: 4%

Structure (SMILES): CCOC(=O)CNC(=O)/C=C/c1ccccc1 [Compound 22a]
- AAPH inhibition (%, at 100 µM) [4]: 5%
- LOX inhibition (%) [1]: 0%
- IC50 [3]: 5 µM

Structure (SMILES): COC(=O)CC[C@H](NC(=O)/C=C/c1ccccc1)C(=O)OC [Compound 22c]
- AAPH inhibition (%, at 100 µM) [4]: 39%
- LOX inhibition (%) [1]: 10%

Structure (SMILES): COC(=O)CC[C@H](NC(=O)/C=C/C=C/c1ccccc1)C(=O)OC [Compound 23c]
- AAPH inhibition (%, at 100 µM) [4]: 25%
- IC50 [1, 5]: 75 µM
- COX-2 inhibition (%) [3]: 47%

Structure (SMILES): CCOC(=O)CNC(=O)/C=C/c1ccc(O)c(OC)c1 [Compound 24a]
- AAPH inhibition (%, at 100 µM) [4]: 82%
- IC50 [1, 5]: 100 µM

Structure (SMILES): COC(=O)CCCNC(=O)/C=C/c1ccc(O)c(OC)c1 [Compound 24b]
- AAPH inhibition (%, at 100 µM) [4]: 34%
- IC50 [1, 5]: 100 µM

Structure (SMILES): COC(=O)CC[C@H](NC(=O)/C=C/c1ccc(O)c(OC)c1)C(=O)OC [Compound 24c]
- AAPH inhibition (%, at 100 µM) [4]: 12%
- IC50 [1, 5]: 75 µM
- COX-2 inhibition (%) [3]: 9%

Structure (SMILES): O=C(O)/C=C/c1ccc(O)cc1 [Compound 25, p-coumaric acid]
- AAPH inhibition (%, at 100 µM) [4]: 76%
- IC50 [1]: 10 µM
- IC50 [3]: 62 µM

Structure (SMILES): COC(=O)CCCNC(=O)/C=C/c1ccc(O)cc1 [Compound 25b]
- AAPH inhibition (%, at 100 µM) [4]: 66%
- LOX inhibition (%) [1]: 10%

Structure (SMILES): COC(=O)CC[C@H](NC(=O)/C=C/c1ccc(O)cc1)C(=O)OC [Compound 25c]
- AAPH inhibition (%, at 100 µM) [4]: 78%
- IC50 [1, 5]: 63 µM

Structure (SMILES): COC(=O)CC[C@H](NC(=O)/C=C/c1ccc(F)cc1)C(=O)OC [Compound 27c]
- AAPH inhibition (%, at 100 µM) [4]: 10%
- LOX inhibition (%) [1]: 8%
- IC50 [3]: 72.5 µM

Structure (SMILES): CCOC(=O)CNC(=O)/C=C/c1ccc(O)c(O)c1 [Compound 28a]
- AAPH inhibition (%, at 100 µM) [4]: 47%
- IC50 [1, 5]: 70 µM
- inhibition at 100 µM [3]: 17%

Structure (SMILES): CC1(C)Oc2ccc(/C=C/C(=O)O)cc2O1 [Compound 29, (E)-3-(2,2-dimethylbenzo[d][1, 3]dioxol-5-yl)acrylic acid]
- AAPH inhibition (%, at 100 µM) [4]: 56%
- inhibition at 100 µM [1]: 46%

Structure (SMILES): CC(=O)Oc1ccc(/C=C/C(=O)O)cc1 [Compound 30, (E)-3-(4-acetoxyphenyl) acrylic acid]
- AAPH inhibition (%, at 100 µM) [4]: 33%
- inhibition at 100 µM [1]: 23%

Structure (SMILES): COC(=O)CC[C@H](NC(=O)/C=C/c1ccc(OC(C)=O)cc1)C(=O)OC [Compound 30c]
- AAPH inhibition (%, at 100 µM) [4]: 16%
- IC50 [1, 5]: 100 µM
- COX-2 inhibition (%) [3]: 6%
